System: 885724-159-R-J1-PDC complex spheroid viability
Assay: Anticancer human tumor 885724-159-R-J1-PDC patient-derived pancreatic adenocarcinoma cell line growth inhibition [POLQ]
Conditions: for IC50: curve of first compound; for viability, T/C: stronger effect = lower value
Method in brief: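 Three-cell-type spheroids modelling solid tumor plus stroma served as the readout system; POL inhibitors were tested individually and in combination, concentration ranges set by clinical Cmax where known.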
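Also: spheroids exposed to compounds for 7 days.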

## COc1ccc([C@@H](O)c2cc(-c3ncnc4cc(N5CCOCC5)ccc34)c(F)cc2Cl)nn1 + COC1C(OC(N)=O)C(O)C(Oc2ccc3c(O)c(NC(=O)c4ccc(O)c(CC=C(C)C)c4)c(=O)oc3c2C)OC1(C)C
Second compound 0.0316 µM
  IC50: 3.45 µM
Second compound 0.1 µM
  IC50: 4.09 µM
Second compound 0.316 µM
  IC50: 4.05 µM
Second compound 1 µM
  IC50: 4.77 µM
Second compound 3.16 µM
  IC50: 3.15 µM
Second compound 10 µM
  IC50: 3.75 µM
Second compound 0.0316 µM, first compound 0.0316 µM
  viability, T/C: 95.4%
Second compound 0.0316 µM, first compound 0.1 µM
  viability, T/C: 85.4%
Second compound 0.0316 µM, first compound 0.316 µM
  viability, T/C: 76.3%
Second compound 0.0316 µM, first compound 1 µM
  viability, T/C: 65.5%
Second compound 0.0316 µM, first compound 3.16 µM
  viability, T/C: 53.4%
Second compound 0.0316 µM, first compound 10 µM
  viability, T/C: 33.4%
Second compound 0.1 µM, first compound 0.0316 µM
  viability, T/C: 104%
Second compound 0.1 µM, first compound 0.1 µM
  viability, T/C: 104%
Second compound 0.1 µM, first compound 0.316 µM
  viability, T/C: 81.9%
Second compound 0.1 µM, first compound 1 µM
  viability, T/C: 71.2%
Second compound 0.1 µM, first compound 3.16 µM
  viability, T/C: 56.7%
Second compound 0.1 µM, first compound 10 µM
  viability, T/C: 33.8%
Second compound 0.316 µM, first compound 0.0316 µM
  viability, T/C: 100%
Second compound 0.316 µM, first compound 0.1 µM
  viability, T/C: 93.3%
Second compound 0.316 µM, first compound 0.316 µM
  viability, T/C: 86.6%
Second compound 0.316 µM, first compound 1 µM
  viability, T/C: 73.7%
Second compound 0.316 µM, first compound 3.16 µM
  viability, T/C: 54.2%
Second compound 0.316 µM, first compound 10 µM
  viability, T/C: 32.8%
Second compound 1 µM, first compound 0.0316 µM
  viability, T/C: 94.2%
Second compound 1 µM, first compound 0.1 µM
  viability, T/C: 81.4%
Second compound 1 µM, first compound 0.316 µM
  viability, T/C: 90%
Second compound 1 µM, first compound 1 µM
  viability, T/C: 66.8%
Second compound 1 µM, first compound 3.16 µM
  viability, T/C: 61.9%
Second compound 1 µM, first compound 10 µM
  viability, T/C: 34.3%
Second compound 3.16 µM, first compound 0.0316 µM
  viability, T/C: 89.9%
Second compound 3.16 µM, first compound 0.1 µM
  viability, T/C: 81.3%
Second compound 3.16 µM, first compound 0.316 µM
  viability, T/C: 97.2%
Second compound 3.16 µM, first compound 1 µM
  viability, T/C: 68.4%
Second compound 3.16 µM, first compound 3.16 µM
  viability, T/C: 52.5%
Second compound 3.16 µM, first compound 10 µM
  viability, T/C: 31.8%
Second compound 10 µM, first compound 0.0316 µM
  viability, T/C: 108%
Second compound 10 µM, first compound 0.1 µM
  viability, T/C: 86.9%
Second compound 10 µM, first compound 0.316 µM
  viability, T/C: 87.5%
Second compound 10 µM, first compound 1 µM
  viability, T/C: 69.1%
Second compound 10 µM, first compound 3.16 µM
  viability, T/C: 55.5%
Second compound 10 µM, first compound 10 µM
  viability, T/C: 31.5%

## CC(=O)O[C@H]1C(=O)[C@@]2(C)[C@H]([C@H](OC(=O)c3ccccc3)[C@]3(O)C[C@H](OC(=O)[C@H](O)[C@@H](NC(=O)c4ccccc4)c4ccccc4)C(C)=C1C3(C)C)[C@]1(OC(C)=O)CO[C@@H]1C[C@@H]2O + Nc1ccc(C#CCN(C(=O)Cc2ncc(C(F)(F)F)cc2C(F)(F)F)c2ccc(F)cc2)nn1
Second compound 0.0316 µM
  IC50: > 3 µM
Second compound 0.1 µM
  IC50: > 3 µM
Second compound 0.316 µM
  IC50: > 3 µM
Second compound 1 µM
  IC50: > 3 µM
Second compound 3.16 µM
  IC50: > 3 µM
Second compound 10 µM
  IC50: > 3 µM
Second compound 0.0316 µM, first compound 0.00949 µM
  viability, T/C: 65.9%
Second compound 0.0316 µM, first compound 0.03 µM
  viability, T/C: 59.9%
Second compound 0.0316 µM, first compound 0.0949 µM
  viability, T/C: 56.6%
Second compound 0.0316 µM, first compound 0.3 µM
  viability, T/C: 64.7%
Second compound 0.0316 µM, first compound 0.949 µM
  viability, T/C: 62.5%
Second compound 0.0316 µM, first compound 3 µM
  viability, T/C: 70.3%
Second compound 0.1 µM, first compound 0.00949 µM
  viability, T/C: 69.9%
Second compound 0.1 µM, first compound 0.03 µM
  viability, T/C: 61.7%
Second compound 0.1 µM, first compound 0.0949 µM
  viability, T/C: 62.5%
Second compound 0.1 µM, first compound 0.3 µM
  viability, T/C: 69.1%
Second compound 0.1 µM, first compound 0.949 µM
  viability, T/C: 70%
Second compound 0.1 µM, first compound 3 µM
  viability, T/C: 68.9%
Second compound 0.316 µM, first compound 0.00949 µM
  viability, T/C: 71.8%
Second compound 0.316 µM, first compound 0.03 µM
  viability, T/C: 60.4%
Second compound 0.316 µM, first compound 0.0949 µM
  viability, T/C: 68%
Second compound 0.316 µM, first compound 0.3 µM
  viability, T/C: 58.1%
Second compound 0.316 µM, first compound 0.949 µM
  viability, T/C: 71.2%
Second compound 0.316 µM, first compound 3 µM
  viability, T/C: 74%
Second compound 1 µM, first compound 0.00949 µM
  viability, T/C: 63.4%
Second compound 1 µM, first compound 0.03 µM
  viability, T/C: 61.5%
Second compound 1 µM, first compound 0.0949 µM
  viability, T/C: 58.6%
Second compound 1 µM, first compound 0.3 µM
  viability, T/C: 63%
Second compound 1 µM, first compound 0.949 µM
  viability, T/C: 70.2%
Second compound 1 µM, first compound 3 µM
  viability, T/C: 69.5%
Second compound 3.16 µM, first compound 0.00949 µM
  viability, T/C: 64.8%
Second compound 3.16 µM, first compound 0.03 µM
  viability, T/C: 66.5%
Second compound 3.16 µM, first compound 0.0949 µM
  viability, T/C: 61.9%
Second compound 3.16 µM, first compound 0.3 µM
  viability, T/C: 60%
Second compound 3.16 µM, first compound 0.949 µM
  viability, T/C: 68.3%
Second compound 3.16 µM, first compound 3 µM
  viability, T/C: 75%
Second compound 10 µM, first compound 0.00949 µM
  viability, T/C: 67.4%
Second compound 10 µM, first compound 0.03 µM
  viability, T/C: 59.2%
Second compound 10 µM, first compound 0.0949 µM
  viability, T/C: 66.2%
Second compound 10 µM, first compound 0.3 µM
  viability, T/C: 70%
Second compound 10 µM, first compound 0.949 µM
  viability, T/C: 75.3%
Second compound 10 µM, first compound 3 µM
  viability, T/C: 71.8%
